Among the data in a melting point compilation (Tetko et al.; mined from patent text by program, amines drawn as free bases though some values may be those of a salt) are melting point values, retold here.

As for `COc1cccc(C=Cc2nc3c(s2)N(C(C)=O)CCC3)c1OC`, the melting point is 185 to 187 °C. In the case of `COc1ccc(-c2ccc([N+](=O)[O-])cc2)cc1OC1CC2CCC1C2` (stereo not given) it was 134 to 135 °C; in that of `Fc1ccc2c(c1)nc(/C=C/c1ccccc1)n2-c1ccccn1`, 134 to 135 °C. On to `CCCc1c(SC(=O)N(C)C)ccc(C(C)=O)c1OCCCC(=O)OCC`, for which the melting point was 60 to 63 °C.

`COCCNC(=O)c1cc(F)cc(-c2cccc3cc(Cc4cc(F)cc(Cl)c4)sc23)c1` displayed a melting point of 72 to 73 °C. With `C[C@H](NC(=O)CC#N)C(=O)N1CCC[C@H]1C(=O)Nc1ccccc1` the figure was 183 to 184 °C; with `S=C(Nc1ccc(Cl)cc1)NC1C2CC3C(C2)C31` (stereo not given), 164 to 166 °C; with `CC(=NOCCO)c1ccc(-c2ccc(C(F)(F)F)cc2)cc1`, 108 to 111 °C. In the case of `Cn1nc(-c2cccc(C(F)(F)F)c2)cc1C(=O)O` it was 198 to 199 °C; in that of `CCCCCCCCCCCCCCOc1ccc(C(=O)OCC)o1`, 39 to 40 °C. With `OC1CSC(Oc2cncc(-c3ccc(F)cc3Cl)c2)C(O)C1O` (stereo not given) the figure was 208 to 211 °C; with `CCOC(=O)c1c[nH]c2cnc3c(F)c(Cl)c(F)cc3c2c1=O`, 328 °C; with `CCCCCCCCNC(=O)CCCC(C)(C)c1ccc(O)cc1O`, 110 to 113 °C.

`N#Cc1ccc(-n2c(=O)cc(C(F)(F)F)n(N)c2=O)cc1O` returned a melting point of over 230 °C.

Compound `CCCc1c(OCCCCCCc2cccc(OCC(=O)O)c2CCC(=O)O)ccc2c1OCCC2=O` yielded a melting point of 127 to 129 °C.

`Oc1ccnc2cc(Cl)c(F)cc12` displayed a melting point of over 300 °C. With `CC1(C)CN=C2C(=O)c3cc(C#N)ccc3N2C1` the figure was 178 to 184 °C. For the compound `COc1ccc(CCCN2CCc3cc(O)ccc3C2)cc1`, the melting point was in the range of 163 to 164 °C. With `CCOC(=O)c1c(C)nsc1NC(=O)NC` the figure was 187 to 189 °C; with `COC(=O)C(CCSC)N(C(=O)OC(C)(C)C)C(=O)c1ccc(N)cc1` (stereo not given), 184 to 185 °C; with `CCCN1C(=O)C2CC(c3ccc(N(C)C)cc3)(C2)C1=O`, 134 to 135 °C. `COc1ccc2c(c1)c(Cc1nc(-c3cccc(Br)c3)cs1)c(C)n2C(=O)c1ccc(Cl)cc1` came in with a melting point of 208 to 212 °C. With `CS(=O)c1c[nH]c2c(Sc3nc4cc(Cl)ccc4[nH]3)ccc([N+](=O)[O-])c12` (stereo not given) the figure was 243 to 246 °C. With `CCCC[C@@H](C)C[C@@H](CC(=O)OC(C)(C)C)C(=O)N1C(=O)O[C@@H](c2ccccc2)[C@H]1C` the figure was 84 to 86 °C; with `CN(C)CC1CCc2cc(OC(=O)c3ccc(-c4ccccc4)cc3)ccc2C1` (stereo not given), 85 to 86 °C; with `CC(=O)Nc1ccc(Cl)c2c1CN(C)C2`, 147 to 150 °C. In the case of `COC(=O)c1cc(N)cc(N)c1SCc1ccccc1` it was 80 to 82 °C; in that of `CCOC(=O)/C=C/c1ccc(OCOC)cc1Oc1ccc(C(F)(F)F)cn1`, 69 to 70 °C.

In turn, `CCOC(=O)c1cc(CC)c2ccc(C(C)C)ccc1-2` came in with a melting point of 48 to 49 °C. With `COC1=CC(O)=CC(OC)C1(OC)c1cc2cccnc2[nH]1` (stereo not given) the figure was 174 to 176 °C; with `O=C(Oc1ccccc1Br)c1cc(-c2ccccc2)cn1CCc1ccccc1Br`, 90 to 92 °C; with `CCOC(=O)C(C#N)=C1CCN(c2ccc(N3C[C@H](CNC(C)=S)OC3=O)cc2F)CC1`, 182 to 185 °C. With `N#Cc1cc(F)c(N2C(=O)C3CCCCN3C2=O)nc1Cl` (stereo not given), the melting point lay within 192 to 193 °C.

`COc1ccc(CCN(CCc2ccc(-c3ccccc3)cc2)C(=O)CCCCC(N)=O)cc1OC` returned a melting point of 177 to 179 °C. In the case of `CC(C)(C)OC(=O)N1CCN(C(=O)OC(C)(C)C)C(C(=O)O)C1` (stereo not given) it was 231 to 233 °C. In the case of `Cc1c(Cl)cc(C2=NNC(=O)CC2O)cc1Cl` (stereo not given) it was 253 to 256 °C; in that of `CC(C)CC(C#N)NC(=O)C(CC(C)C)NC(=O)c1ccc(Cn2ccnc2)cc1` (stereo not given), 100 to 103 °C. `C=C(C#N)CCC(=O)O` yielded a melting point of 26.5 to 27 °C.

Consider `O=Cc1cc(Cl)cc(C=O)n1`, for which the melting point was 163 °C. With `O=C1c2cc(O)cc(O)c2C(=O)C1c1ccc(O)cc1` (stereo not given) the figure was 180 °C; with `CC(CC(=O)Nc1c(Cl)ccc2nc(CCCNCCCO)ccc12)c1ccccc1` (stereo not given), 118 to 120 °C; with `CC1=C2OCOC2CC(C)(C)C1(O)C[Si](C)(C)C` (stereo not given), 63 to 64.5 °C. With `C[C@H]1C(=O)C[C@@H]2C[C@H]1OO[C@]2(C)/C=C\c1ccc(C(F)(F)F)cc1Cl` the figure was 160 °C; with `COc1ccc(-n2nc3c(-c4ccccc4)c(C)[nH]cc-3c2=O)cc1`, 300 to 310 °C; with `CCOC(=O)C1=C(C)N=C(SCc2ccccc2)N(C(=O)OCC)C1c1ccccc1[N+](=O)[O-]` (stereo not given), 110 to 112 °C. In the case of `CCOC(=O)CCC(=O)[C@H](Cc1ccccc1)NC(=O)c1ccccc1` it was 112 to 114 °C; in that of `CC1(C(F)(F)F)OC(=O)Nc2ccc(Cl)cc21` (stereo not given), 216 °C; in that of `Clc1nccc2cc(Br)ccc12`, 103 to 104 °C.

Regarding `COc1ccc2cc(C(=O)CNC(=O)c3cn(Cc4ccccc4)c4ccccc34)ccc2c1`, the melting point lay within 177 to 179 °C. In the case of `CC1(C)OC(=O)Nc2ccc(-c3cccc(C(=O)c4ccccc4)c3)cc21` it was 156 to 157 °C; in that of `CCOC(=O)c1cnn(-c2ccc(OCC(C)(C)COC(=O)c3ccccc3)c(C#N)c2)c1`, 112 to 114 °C. In the case of `CCSc1ccc(-c2coc3ccc(-c4nnc(C)o4)cc23)cc1` it was 144 to 145 °C; in that of `COc1ccc(C(=O)Nc2ccccc2)cc1NCc1ccccc1F`, 142 to 144 °C; in that of `Cc1nc2c(Cl)nccc2n1C`, 197 to 198 °C. With `COCC(=O)Nc1cccc2c1C(=O)N(C1CCC(=O)NC1=O)C2=O` (stereo not given) the figure was 246 to 248 °C. Turning to `CCCCc1nc(O)cc(CCl)n1`, the melting point lay in the range of 102 to 104 °C. With `O=P1(Oc2ccccc2)CCCC(CI)O1` (stereo not given) the figure was 128 °C. With `O=C(NCCCCNS(=O)(=O)c1ccc(Oc2ccccc2)cc1)P(=O)(O)O` the figure was 143 to 145 °C; with `CCCCN(CCCC)CCCOc1ccc(C(=O)c2c(-c3ccccc3)cc3cc(C(=O)OCC)ccn23)cc1`, 148 to 151 °C; with `CNc1ccc(C(=O)Nc2c(C)cccc2C)cn1`, 207 to 209 °C. In turn, `O=C1O[C@@H](COc2cnsn2)CN1c1ccc(N2C[C@@H]3C[C@H]2CN3Cc2ccccc2)c(F)c1` displayed a melting point of 97 to 98 °C.

As for `CCCCCCCCCCCCSCCCN(CCO)CCO`, the melting point fell in the range of 53 to 54 °C. For the compound `C#CC1(OC(=O)C(C)C)C(COC(=O)c2ccc(Cl)cc2)OC(n2ccc(N)nc2=O)C1OC(=O)C(C)C` (stereo not given), the melting point is 106 to 108 °C. In the case of `CC(=O)NCC1CCN(CCOc2ccccc2)CC1` it was 79 to 80 °C; in that of `O=C(O)c1cc(NCc2c(F)c(F)c(C(F)(F)F)c(F)c2F)ccc1OC(=O)C1CCCCC1`, 190 to 193 °C; in that of `CCCCOc1c(CN2C(=O)c3ccccc3C2=O)n(CC2CC2)c(=O)c2ccc(OCc3ccccc3)cc12`, 127 to 128 °C. With `CCOc1nc2ccccc2nc1N(CC)C(=O)N1CCN(c2cc(C)cc(C)c2)CC1` the figure was 142 to 144 °C; with `O=C(Nc1ccc(C(F)(F)F)cc1)N1CC(NC(=O)C(F)(F)F)C(c2ccc(Cl)cc2)=N1` (stereo not given), 259 to 260 °C. With `CCN(C1CCN(Cc2ccccc2)C1)S(=O)(=O)c1ccc(Nc2nccc(Nc3ccc(F)cc3)n2)cc1` (stereo not given) the figure was 125 to 127 °C; with `Cc1cc(O)c(O)cc1C`, 71 to 72 °C.

In the case of `Clc1ccc(C2(Cn3cncn3)CCC2)cc1`, the melting point lay within 124 to 125 °C. In the case of `CC(=O)N1CCC(C(=O)c2ccc(Cl)c(Cl)c2)CC1` it was 134 to 136 °C. With `COC(=O)CC(=O)c1nccn1C` the figure was 142 to 143 °C; with `S=C1Nc2cc(Br)ccc2N2CCc3cccc1c32`, 196 to 197 °C; with `Cn1cc(S(=O)(=O)Cl)c(=O)c2ccc(Cl)cc21`, over 300 °C. With `CC(C)(CO)NS(=O)(=O)c1cc(NC(=O)c2cnn3c(C(F)(F)F)cc(-c4ccc(C(F)(F)F)c(OCC(F)(F)F)c4)nc23)c(Cl)s1` the figure was 264 °C. Take `CC(=O)NC[C@H]1CN(c2ccc(-c3noc(C#N)n3)c(F)c2)C(=O)O1`: the melting point lay within 200 to 202 °C. In the case of `COc1ccc(-c2csc(C(=O)O)n2)cc1OC` it was 105 to 106 °C. With `N#Cc1cc(Br)c(O)c(Cc2cc(F)cc(Cc3cc(C#N)cc(Br)c3O)c2O)c1` the figure was 240 °C; with `O=C(O)c1ccc(C(F)(F)F)cc1[N+](=O)[O-]`, 136 to 138 °C; with `CCCc1cc(-c2ccc(Cl)cc2)nc2c(C(=O)Nc3cccc(S(C)(=O)=O)c3)cnn12`, 214 to 217 °C. With `Cc1c(F)cc(C(=O)NC(C)C(C)C)cc1-c1ccc(C(=O)NCC(C)(C)C)cc1C(=O)Nc1nccs1` (stereo not given) the figure was 234 to 239 °C. For `CC(C)(C)OC(=O)Cn1c(C(=O)O)cc2cc(N)ccc21`, the melting point came out at 128 °C. In the case of `CCOC(=O)c1c(N2CCN(C)CC2)c2cnc(-c3ccccc3)nc2n(CC)c1=O` it was 180 to 185 °C; in that of `CCNC(=O)N1CCn2nc(-c3ccc(F)cc3)c(-c3ccncc3)c2N1`, 235 to 240 °C; in that of `CCCCc1nccc2c([N+](=O)[O-])cccc12`, 69 to 69.5 °C.

In turn, `Oc1cccc2c(CCc3ccccc3)ccnc12` gave a melting point of 102 to 103 °C. With `Cn1ncnc1COc1nc2c(-c3ccccc3)nncn2c1-c1ccccc1` the figure was 179 °C; with `COc1ccc2ccc(N3C(=O)c4ccccc4C3CC(=O)CCCO)nc2n1` (stereo not given), 152 °C.

In turn, `N#Cc1cc2[nH]c(=O)c(=O)n(C3CCCCC3)c2c2ccccc12` came in with a melting point of over 300 °C.
